Target: T1, SIRT1 (Homo sapiens, UniProt Q96EB6)
T1 sequence (Q96EB6 1-747): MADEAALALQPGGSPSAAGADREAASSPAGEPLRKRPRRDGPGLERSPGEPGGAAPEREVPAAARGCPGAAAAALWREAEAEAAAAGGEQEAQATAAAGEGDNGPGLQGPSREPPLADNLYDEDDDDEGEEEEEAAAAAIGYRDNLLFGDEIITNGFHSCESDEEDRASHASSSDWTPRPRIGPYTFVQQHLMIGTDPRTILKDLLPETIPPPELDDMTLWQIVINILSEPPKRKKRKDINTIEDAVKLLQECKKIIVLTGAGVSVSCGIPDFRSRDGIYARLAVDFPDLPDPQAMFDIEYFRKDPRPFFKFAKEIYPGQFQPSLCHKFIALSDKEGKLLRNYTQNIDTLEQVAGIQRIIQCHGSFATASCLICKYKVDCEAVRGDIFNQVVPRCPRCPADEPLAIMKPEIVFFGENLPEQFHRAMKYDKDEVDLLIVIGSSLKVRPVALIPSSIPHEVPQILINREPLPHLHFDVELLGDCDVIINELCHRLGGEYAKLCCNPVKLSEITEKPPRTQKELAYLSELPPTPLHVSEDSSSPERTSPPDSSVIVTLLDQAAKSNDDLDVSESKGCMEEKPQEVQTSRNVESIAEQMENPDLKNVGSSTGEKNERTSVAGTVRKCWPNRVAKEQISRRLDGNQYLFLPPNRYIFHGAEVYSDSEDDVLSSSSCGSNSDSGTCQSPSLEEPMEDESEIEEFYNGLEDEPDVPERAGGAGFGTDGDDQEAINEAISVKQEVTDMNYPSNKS
Assay: Mass spectrometry based assay to identify modulators of SIRT1 activity (deacetylation of p53-based acetylated peptide)
Assay type: biochemical
Conditions: 10 nM SIRT1, 0.5 μM peptide substrate, 120 μM βNAD+, 25 minutes at 25° C.; for EC1.5 μM: SIRT1 activation
Excerpt: A mass spectrometry based assay was used to identify modulators of SIRT1 activity. The mass spectrometry based assay utilizes a peptide having 20 amino acid residues as follows: Ac-EE-K(biotin)-GQSTSSHSK(Ac)NleSTEG-K(5TMR)-EE-NH2 (SEQ ID NO: 1) wherein K(Ac) is an acetylated lysine residue and Nle is a norleucine. The peptide is labeled with the fluorophore 5TMR (excitation 540 nm/emission 580 nm) at the C-terminus. The sequence of the peptide substrate is based on p53 with several modifications. In addition, the methionine residue naturally present in the sequence was replaced with the norleucine because the methionine may be susceptible to oxidation during synthesis and purification.
The mass spectrometry assay is conducted as follows: 0.5 μM peptide substrate and 120 μM βNAD^+ is incubated with 10 nM SIRT1 for 25 minutes at 25° C. in a reaction buffer (50 mM Tris-acetate pH 8, 137 mM NaCl, 2.7 mM KCl, 1 mM MgCl2, 5 mM DTT, 0.05% BSA). Test compounds may be added to the reaction as described above. […] After the 25 minute incubation with SIRT1, 10 μL of 10% formic acid is added to stop the reaction. Reactions are sealed and frozen for later mass spec analysis. Determination of the mass of the substrate peptide allows for precise determination of the degree of acetylation (i.e. starting material) as compared to deacetylated peptide (product).
A control for inhibition of sirtuin activity is conducted by adding 1 μL of 500 mM nicotinamide as a negative control at the start of the reaction (e.g., permits determination of maximum sirtuin inhibition). A control for activation of sirtuin activity is conducted using 10 nM of sirtuin protein, with 1 μL of DMSO in place of compound, to determine the amount of deacetylation of the substrate at a given timepoint within the linear range of the assay. This timepoint is the same as that used for test compounds and, within the linear range, the endpoint represents a change in velocity.
For the above assay, SIRT1 protein was expressed and purified as follows. […] The protein was expressed by induction with 1 mM IPTG as an N-terminal His-tag fusion protein at 18° C. overnight and harvested at 30,000×g. Cells were lysed with lysozyme in lysis buffer (50 mM Tris-HCl, 2 mM Tris[2-carboxyethyl]phosphine (TCEP), 10 μM ZnCl2, 200 mM NaCl) and further treated with sonication for 10 min for complete lysis. The protein was purified over a Ni-NTA column (Amersham) and fractions containing pure protein were pooled, concentrated and run over a sizing column (Sephadex S200 26/60 global). The peak containing soluble protein was collected and run on an Ion-exchange column (MonoQ). Gradient elution (200 mM-500 mM NaCl) yielded pure protein. This protein was concentrated and dialyzed against dialysis buffer (20 mM Tris-HCl, 2 mM TCEP) overnight. The protein was aliquoted and frozen at −80° C. until further use.
Sirtuin modulating compounds that activated SIRT1 were identified using the assay described above and are shown below in Tables 1 and 2. The EC1.5 values for the activating compounds are represented by A (EC1.5<1.0 μM), B (EC1.5 1-25 μM), C (EC1.5>25 μM). The percent maximum fold activation is represented by A (Fold activation>200%) or B (Fold Activation<200%).

Structure (SMILES): Cn1c(-c2cccc(C#N)c2)nc2c(C(=O)Nc3ccccn3)cccc2c1=O [Compound 253]
- % Fold Act. (percent maximum fold activation): B (Fold Activation<200%)
- EC1.5 μM: C (EC1.5>25 μM)

Structure (SMILES): Cc1cc(NC(=O)c2cccc3c(=O)n(C)c(-c4cccc(C(F)(F)F)c4)nc23)n(C)n1 [Compound 295]
- % Fold Act. (percent maximum fold activation): B (Fold Activation<200%)
- EC1.5 μM: C (EC1.5>25 μM)

Structure (SMILES): Cn1c(-c2cccc(OC(F)F)c2)nc2c(NC(=O)c3cnccn3)cccc2c1=O [Compound 315]
- % Fold Act. (percent maximum fold activation): A (Fold activation>200%)
- EC1.5 μM: A (EC1.5<1.0 μM)

Structure (SMILES): Cc1cc(NC(=O)c2cccc3c(=O)cc(-c4cccc(C(F)(F)F)c4)[nH]c23)n(C)n1 [Compound 407]
- % Fold Act. (percent maximum fold activation): A (Fold activation>200%)
- EC1.5 μM: A (EC1.5<1.0 μM)

Structure (SMILES): Cn1c(-c2cccc(C(F)(F)F)c2)nc2c(C(=O)Nc3ccnc(CN4CCOCC4)n3)cccc2c1=O [Compound 307]
- % Fold Act. (percent maximum fold activation): A (Fold activation>200%)
- EC1.5 μM: B (EC1.5 1-25 μM)

Structure (SMILES): Cn1c(-c2cccc(C(F)(F)F)c2)nc2c(C(=O)Nc3cncc(CN4CCOCC4)c3)cccc2c1=O [Compound 300]
- % Fold Act. (percent maximum fold activation): A (Fold activation>200%)
- EC1.5 μM: B (EC1.5 1-25 μM)

Structure (SMILES): Cn1c(-c2cccc(C(F)(F)F)c2)nc2c(NC(=O)c3cncs3)cccc2c1=O [Compound 229]
- % Fold Act. (percent maximum fold activation): B (Fold Activation<200%)
- EC1.5 μM: B (EC1.5 1-25 μM)

Structure (SMILES): CCn1c(-c2cccc(C(F)(F)F)c2)nc2c(C(=O)Nc3ccccn3)cccc2c1=O [Compound 269]
- % Fold Act. (percent maximum fold activation): B (Fold Activation<200%)
- EC1.5 μM: B (EC1.5 1-25 μM)

Structure (SMILES): Cn1c(-c2ccccc2)nc2c(C(=O)Nc3ccccn3)cccc2c1=O [Compound 210]
- % Fold Act. (percent maximum fold activation): B (Fold Activation<200%)
- EC1.5 μM: B (EC1.5 1-25 μM)

Structure (SMILES): O=C(Nc1ccncc1)c1cccc2c(=O)cc(-c3cccc(C(F)(F)F)c3)[nH]c12 [Compound 402]
- % Fold Act. (percent maximum fold activation): A (Fold activation>200%)
- EC1.5 μM: A (EC1.5<1.0 μM)

Structure (SMILES): Cn1nccc1C(=O)Nc1cccc2c(=O)n(C)c(-c3cccc(C(F)(F)F)c3)nc12 [Compound 248]
- % Fold Act. (percent maximum fold activation): A (Fold activation>200%)
- EC1.5 μM: A (EC1.5<1.0 μM)

Structure (SMILES): Cn1c(-c2cccc(C(F)(F)F)c2)nc2c(NC(=O)c3cccc(OCC(O)CO)n3)cccc2c1=O (stereo not shown) [Compound 335]
- % Fold Act. (percent maximum fold activation): A (Fold activation>200%)
- EC1.5 μM: A (EC1.5<1.0 μM)

Structure (SMILES): Cn1c(-c2cccc(C(F)(F)F)c2)nc2c(NC(=O)c3ccncn3)cccc2c1=O [Compound 245]
- % Fold Act. (percent maximum fold activation): A (Fold activation>200%)
- EC1.5 μM: A (EC1.5<1.0 μM)

Structure (SMILES): Cn1c(-c2cccc(C(F)(F)F)c2)nc2c(NC(=O)c3cccc(CN4CCOCC4)c3)cccc2c1=O [Compound 338]
- % Fold Act. (percent maximum fold activation): A (Fold activation>200%)
- EC1.5 μM: A (EC1.5<1.0 μM)

Structure (SMILES): Cn1c(-c2cccc(N3CCOCC3)c2)nc2c(C(=O)Nc3ccccn3)cccc2c1=O [Compound 209]
- % Fold Act. (percent maximum fold activation): A (Fold activation>200%)
- EC1.5 μM: B (EC1.5 1-25 μM)

Structure (SMILES): O=C(Nc1cccc2c(=O)cc(-c3cccc(C(F)(F)F)c3)[nH]c12)c1cccc(N2CCOCC2)n1 [Compound 425]
- % Fold Act. (percent maximum fold activation): A (Fold activation>200%)
- EC1.5 μM: A (EC1.5<1.0 μM)

Structure (SMILES): Cn1cc(-c2nc3c(C(=O)Nc4ccccn4)cccc3c(=O)n2C)cn1 [Compound 263]
- % Fold Act. (percent maximum fold activation): B (Fold Activation<200%)
- EC1.5 μM: C (EC1.5>25 μM)

Structure (SMILES): Cn1c(-c2cccc(C(F)(F)F)c2)nc2c(NC(=O)c3cccc(N4CCOCC4)c3)cccc2c1=O [Compound 330]
- % Fold Act. (percent maximum fold activation): A (Fold activation>200%)
- EC1.5 μM: A (EC1.5<1.0 μM)

Structure (SMILES): Cn1c(-c2ccc(S(C)(=O)=O)cc2)nc2c(C(=O)Nc3ccccn3)cccc2c1=O [Compound 215]
- % Fold Act. (percent maximum fold activation): B (Fold Activation<200%)
- EC1.5 μM: C (EC1.5>25 μM)

Structure (SMILES): Cn1cncc1C(=O)Nc1cccc2c(=O)n(C)c(-c3cccc(C(F)(F)F)c3)nc12 [Compound 236]
- % Fold Act. (percent maximum fold activation): A (Fold activation>200%)
- EC1.5 μM: B (EC1.5 1-25 μM)

Structure (SMILES): O=C(Nc1ccccn1)c1cccc2c(=O)[nH]c(-c3ccccc3C(F)F)nc12 [Compound 324]
- % Fold Act. (percent maximum fold activation): A (Fold activation>200%)
- EC1.5 μM: A (EC1.5<1.0 μM)

Structure (SMILES): Cn1c(C2CCC2)nc2c(C(=O)Nc3ccccn3)cccc2c1=O [Compound 224]
- % Fold Act. (percent maximum fold activation): B (Fold Activation<200%)
- EC1.5 μM: C (EC1.5>25 μM)

Structure (SMILES): CN1C(=O)CCC1C(=O)Nc1cccc2c(=O)n(C)c(-c3cccc(C(F)(F)F)c3)nc12 (stereo not shown) [Compound 340]
- % Fold Act. (percent maximum fold activation): B (Fold Activation<200%)
- EC1.5 μM: C (EC1.5>25 μM)

Structure (SMILES): Cn1c(-c2cccc(C(F)(F)F)c2)nc2c(C(=O)Nc3ccnc(CN4CCNCC4)n3)cccc2c1=O [Compound 347]
- % Fold Act. (percent maximum fold activation): A (Fold activation>200%)
- EC1.5 μM: A (EC1.5<1.0 μM)

Structure (SMILES): Cc1cc(NC(=O)c2cccc3c(=O)cc(-c4cccc(C(F)(F)F)c4)[nH]c23)on1 [Compound 406]
- % Fold Act. (percent maximum fold activation): A (Fold activation>200%)
- EC1.5 μM: A (EC1.5<1.0 μM)

Structure (SMILES): Cn1c(-c2cccc(C(F)(F)F)c2)nc2c(NC(=O)c3cncnc3)cccc2c1=O [Compound 241]
- % Fold Act. (percent maximum fold activation): B (Fold Activation<200%)
- EC1.5 μM: C (EC1.5>25 μM)

Structure (SMILES): Cn1c(-c2cccc(OC(F)F)c2)nc2c(C(=O)Nc3ccccn3)cccc2c1=O [Compound 326]
- % Fold Act. (percent maximum fold activation): A (Fold activation>200%)
- EC1.5 μM: A (EC1.5<1.0 μM)

Structure (SMILES): O=C(Nc1nccs1)c1cccc2c(=O)cc(-c3cccc(Cl)c3)[nH]c12 [Compound 433]
- % Fold Act. (percent maximum fold activation): A (Fold activation>200%)
- EC1.5 μM: A (EC1.5<1.0 μM)

Structure (SMILES): O=C(Nc1cccc2c(=O)cc(-c3cccc(C(F)(F)F)c3)[nH]c12)c1cccc(F)n1 [Compound 424]
- % Fold Act. (percent maximum fold activation): A (Fold activation>200%)
- EC1.5 μM: A (EC1.5<1.0 μM)

Structure (SMILES): O=C(Nc1ccccn1)c1cccc2c(=O)[nH]c(-c3cccc(OC(F)F)c3)nc12 [Compound 325]
- % Fold Act. (percent maximum fold activation): B (Fold Activation<200%)
- EC1.5 μM: C (EC1.5>25 μM)

Structure (SMILES): O=C(Nc1cccc2c(=O)cc(-c3cccc(C(F)(F)F)c3)[nH]c12)c1ccns1 [Compound 411]
- % Fold Act. (percent maximum fold activation): A (Fold activation>200%)
- EC1.5 μM: A (EC1.5<1.0 μM)

Structure (SMILES): Cn1c(-c2cccc(C(F)(F)F)c2)nc2c(NC(=O)c3cccc(N4CCOCC4)n3)cccc2c1=O [Compound 341]
- % Fold Act. (percent maximum fold activation): A (Fold activation>200%)
- EC1.5 μM: A (EC1.5<1.0 μM)

From patent US9326986B2, “Quinazolinone, quinolone and related analogs as sirtuin modulators” (GLAXOSMITHKLINE LLC, priority 2008, dated 2016)
